Key:
[1] = biological target: T1, Endogenous BRD4 (NPC) (Homo sapiens, UniProt O60885); assay: CoraFluor TR-FRET ligand displacement, endogenous BRD4 in NPC lysate; type: binding; conditions: with 95% confidence interval, read-out: Endogenous BRD4 (NPC), KD,app
T1 construct: target engagement toward endogenous BRD4 derived from cellular lysates of cell types of interest; endogenous in cells; host or cells: 8330-8 human iPSC-derived neural progenitor cells
Description: A cell pellet from one 15 cm dish (~ 25 M cells) of HEK293T cells, or from one confluent T-75 flask 8330-8 NPC cells (~ 9 M cells), was allowed to thaw on ice and cells were suspended in 400 μL lysis buffer (25 mM HEPES, 150 mM NaCl, 0.2% (v/v) Triton X-100, 0.02% (v/v) TWEEN-20, pH 7.5 supplemented with 2 mM DTT and one Roche cOmplete, Mini, EDTA-free protease inhibitor cocktail tablet (Sigma 11,836,170,001) per 7 mL. Cells were homogenized via passage through a 27.5-gauge needle 5 times, and the resulting mixture was incubated with slow, end-over-end mixing at 4 °C for 15 min. The lysate was clarified via centrifugation at 16,100 × g for 10 min at 4 °C then 800 μL (1:3 dilution) dilution buffer (25 mM HEPES, 150 mM NaCl, 0.005% (v/v) TWEEN-20, pH 7.5) was added and the lysate was re-clarified at 16,100 × g for 10 min at 4 °C. Total protein was quantified via detergent-compatible Bradford assay (ThermoFisher 23,246). The lysate was used fresh or flash-frozen in liquid nitrogen and stored at − 80 °C in single-use aliquots.
(§1) Unless otherwise noted, experiments were performed in white, 384-well microtiter plates (Corning 3572 or PerkinElmer ProxiPlate-384 Plus) in 30 μL or 10 μL assay volume, respectively. TR-FRET measurements were acquired on a Tecan SPARK plate reader with SPARKCONTROL software version V2.1 (Tecan Group Ltd.), with the following settings: 340/50 nm excitation, 490/10 nm (Tb), 520/10 nm (FITC) emission, 100 μs delay, and 400 μs integration. The 490/10 and 520/10 nm emission channels were acquired with a 50% mirror and a dichroic 510 mirror, respectively, using independently optimized detector gain settings unless specified otherwise. The TR-FRET ratio was taken as the 520/490 nm intensity ratio on a per-well basis.
For the profiling of endogenous BRD4, cell lysates as prepared above were diluted to 0.8 mg/mL total protein in 1:3 lysis buffer:dilution buffer with 0.5 nM rabbit anti-BRD4 antibody (Cell Signaling Technology; E2A7X) and 1 nM CoraFluor-1-labeled anti-rabbit Nano-Secondary (ChromoTek CTK0101). JQ1-FITC was added in serial dilution (cmax = 200 nM) using an HP D300 digital dispenser and allowed to equilibrate for 2 h at room temperature before TR-FRET measurements were taken. Nonspecific signal was determined with 50 μM JQ1-Acid, and data were fitted to a One Site–Specific Binding model in Prism 9. The KD,app determined from the one-site model was then adjusted for a two-site model using Eq. 1.
(§2) The following assay parameters have been used: (i) 4 nM GST-BRD4(BD1), 4 nM CoraFluor-labeled GST VHH, 20 nM JQ1-FITC in assay buffer, (ii) 4 nM GST-BRD4(BD2), 4 nM CoraFluor-labeled GST VHH, 20 nM JQ1-FITC in assay buffer, (iii) HEK293T or NPC cell lysate at 0.8 mg/mL total protein, 1 nM rabbit anti-BRD4 antibody, 2 nM CoraFluor-labeled anti-rabbit Nano-Secondary, 20 nM JQ1-FITC. For all experiments, test compounds were added in serial dilution (cmax = 10 μM) using an HP D300 digital dispenser and allowed to equilibrate for 2 h at room temperature before TR-FRET measurements were taken. The assay floor (background) was defined with the 10 μM mivebresib dose, and the assay ceiling (top) was defined via a no-inhibitor control. Data were fitted to a four-parameter dose–response model in Prism 9.
(§3) For TR-FRET ligand displacement assays with recombinant bromodomains, we have determined the KD of the respective fluorescent tracer (JQ1-FITC) under each assay condition. For endogenous BRD4 in whole cell extract, we have determined the KD,app of JQ1-FITC under each assay condition. Inhibitor KD and KD,app values have been calculated using Cheng-Prusoff principles, outlined in Eq. 2 below:2 KDorKD,app=IC50/1+[S]/KX where IC50 is the measured IC50 value, [S] is the concentration of fluorescent tracer, and KX is the KD or KD,app of the fluorescent tracer for a given condition.

[2] = biological target: T2, Recombinant BRD4(BD2) (Homo sapiens, UniProt O60885); assay: TR-FRET ligand displacement, recombinant GST-BRD4(BD2); type: binding; conditions: GST-tagged, with 95% confidence interval
T2 construct: using the recombinant, individually purified bromodomains of BRD4 (GST-tagged BD1 and BD2); purchased Epicypher, Inc 15–0013
Description: as §1
Assays were performed as described. Recombinant BRD4(BD1) and BRD4(BD2) were purchased from BPS Biosciences, Inc and Epicypher, Inc (GST-BRD4(BD1), 31,040; GST-BRD4(BD2), 15–0013, respectively). Recombinant bromodomains were diluted to 0.5 nM in assay buffer (25 mM HEPES, 150 mM NaCl, 0.5 mg/mL BSA, 0.005% TWEEN-20, pH 7.5) with 2 nM CoraFluor-1-labeled GST VHH (ChromoTek ST-250), then JQ1-FITC was added in serial dilution (cmax = 100 nM) using an HP D300 digital dispenser and allowed to equilibrate for 2 h at room temperature before TR-FRET measurements were taken. Nonspecific signal was determined with 50 μM JQ1-Acid, and data were fitted to a One Site–Specific Binding model in Prism 9. The KD determined from the one-site model was then used in Eq. 1 to adjust for a two-site model due to the dimeric GST protein:1 KD,2-site=KD,1-site×(1+2)
as §2, §3

## Cn1ccc2c(-c3cccnc3Oc3ccc(F)cc3)c[nH]c2c1=O [Compound 18B, 3-[2-(4-fluorophenoxy)pyridin-3-yl]-6-methyl-1,6-dihydro-7H-pyrrolo[2,3-c]pyridin-7-one]
[1]
  Kd: 0.131 µM
[2]
  Kd: 0.158 µM

## Cn1ccc2c(-c3cc(F)cnc3Oc3ccc(F)cc3)c[nH]c2c1=O [Compound 86B, 3-(5-fluoro-2-(4-fluorophenoxy)pyridin-3-yl)-6-methyl-1,6-dihydro-7H-pyrrolo[2,3-c]pyridin-7-one]
[1]
  Kd: 5.9 µM
[2]
  Kd: 3.71 µM

## Cn1ccc2c(-c3cccnc3Oc3ccc(F)c(F)c3)c[nH]c2c1=O [Compound 81B, 3-(2-(3,4-difluorophenoxy)pyridin-3-yl)-6-methyl-1,6-dihydro-7H-pyrrolo[2,3-c]pyridin-7-one]
[1]
  Kd: 0.532 µM
[2]
  Kd: 0.375 µM

## Cn1cc(-c2cccnc2Nc2ccc(F)cc2)c2cc[nH]c2c1=O [Compound 85A, 4-(2-((4-fluorophenyl)amino)pyridin-3-yl)-6-methyl-1,6-dihydro-7H-pyrrolo[2,3-c]pyridin-7-one]
[1]
  Kd: 0.1 µM
[2]
  Kd: 0.421 µM

## Cn1cc(-c2cccnc2Oc2ccc(F)cc2)c2cc[nH]c2c1=O [Compound 18A, 4-(2-(4-fluorophenoxy)pyridin-3-yl)-6-methyl-1H-pyrrolo[2,3-c]pyridin-7(6H)-one]
[1]
  Kd: 0.046 µM
[2]
  Kd: 0.024 µM

## Cn1ccc2c(-c3cccnc3Sc3ccc(F)cc3)c[nH]c2c1=O [Compound 84B, 3-(2-((4-fluorophenyl)thio)pyridin-3-yl)-6-methyl-1,6-dihydro-7H-pyrrolo[2,3-c]pyridin-7-one]
[1]
  Kd: 0.195 µM
[2]
  Kd: 0.133 µM

## Cn1cc(-c2cc(F)cnc2Oc2ccc(F)cc2)c2cc[nH]c2c1=O [Compound 86A, 4-(5-fluoro-2-(4-fluorophenoxy)pyridin-3-yl)-6-methyl-1,6-dihydro-7H-pyrrolo[2,3-c]pyridin-7-one]
[1]
  Kd: 0.559 µM
[2]
  Kd: 0.324 µM

## Cn1cc(-c2cccnc2Oc2cc(F)cc(F)c2)c2cc[nH]c2c1=O [Compound 82A, 4-(2-(3,5-difluorophenoxy)pyridin-3-yl)-6-methyl-1,6-dihydro-7H-pyrrolo[2,3-c]pyridin-7-one]
[1]
  Kd: 0.045 µM
[2]
  Kd: 0.03 µM

## Cn1ccc2c(-c3cccnc3Oc3cc(F)cc(F)c3)c[nH]c2c1=O [Compound 82B, 3-(2-(3,5-difluorophenoxy)pyridin-3-yl)-6-methyl-1,6-dihydro-7H-pyrrolo[2,3-c]pyridin-7-one]
[1]
  Kd: 0.43 µM
[2]
  Kd: 0.332 µM

## Cn1cc(-c2cccnc2Sc2ccc(F)cc2)c2cc[nH]c2c1=O [Compound 84A, 4-(2-((4-fluorophenyl)thio)pyridin-3-yl)-6-methyl-1,6-dihydro-7H-pyrrolo[2,3-c]pyridin-7-one]
[1]
  Kd: 0.378 µM
[2]
  Kd: 0.199 µM

## Cn1cc(-c2cccnc2Oc2ccc(F)c(F)c2)c2cc[nH]c2c1=O [Compound 81A, 4-(2-(3,4-difluorophenoxy)pyridin-3-yl)-6-methyl-1,6-dihydro-7H-pyrrolo[2,3-c]pyridin-7-one]
[1]
  Kd: 0.032 µM
[2]
  Kd: 0.034 µM

## Cn1ccc2c(-c3cccnc3Nc3ccc(F)cc3)c[nH]c2c1=O [Compound 85B, 3-(2-((4-fluorophenyl)amino)pyridin-3-yl)-6-methyl-1,6-dihydro-7H-pyrrolo[2,3-c]pyridin-7-one]
[1]
  Kd: 3.81 µM
[2]
  Kd: 2.74 µM

Source: PMC11032351, “Epigenetic modulation through BET bromodomain inhibitors as a novel therapeutic strategy for progranulin-deficient frontotemporal dementia” (Scientific Reports, 2024)
